Structures can show the parent of a compound that is named as a salt. Where two headings read alike, the source gives them in different places.
Assays:
[1] = physchem; conditions: solid storage
[2] = tested on: granuloma from cotton pellets; assay: Anti-inflammatory activity, granuloma induced by cotton pellets; type: in vivo, female albino rats of the Sprague Dawley strain; conditions: for Average dry weight of the granuloma (average ± s.e.): in mg (unit assumed)
Experimental: The test consists of evaluating the capacity of the substances under examination to inhibit the formation of granuloma following the subcutaneous implantation of extraneous bodies (in this case, cotton pellets). […] One group of animals was used as a control. […] After the subcutaneous implant of 2 cotton pellets each having a weight of 20 mg into the dorsal region, the animals were administered daily, for 4 consecutive days, with the substances under examination in the doses given above.

[3] = Solubility at 25° C. (w/v), saturated solutions, Elson-Morgan colorimetric method; type: physicochemical; conditions: for solubility thermodynamic: w/v
Experimental: Solubility (at 25° C.--w/v).
This test was carried out by preparing saturated solutions of glucosamine-SP in various solvents and determining the concentration of the glucosamine by the Elson-Morgan colorimetric method mentioned above.

[4] = Acute toxicity in rats; parameters: species or system Sprague Dawley albino rats; conditions: rat, in vivo; for LD50 at 240 h: 10 days observation, read-out: DL50
Source text: Sprague Dawley albino rats having an average weight of about 150 g, subdivided into groups of 10 animals (5 males and 5 females) were used for each dose and for each method of administration.
The methods of administration were: oral by means of a gastric probe, intramuscular and endovenous into the caudal vein.
(§1) The observation time after administration was 10 days.

[5] = pH of aqueous solution; type: physicochemical
Experimental: The pH of an aqueous saturated solution of glucosamine-SP at 20° C. is 3.0±0.2.

[6] = Acute toxicity in mice; parameters: species or system Swiss NMRI mice; conditions: mouse, in vivo; for LD50 at 240 h: 10 days observation, read-out: DL50
Source text: Swiss NMRI mice having an average weight of 20±2 g, subdivided in groups of 10 animals (5 females and 5 males) were used for each dose and for each method of administration.
The methods of administration were: oral by means of gastric probe, intramuscular and endovenous into the caudal vein.
as §1

[7] = tested on: mice-embryo fibroblast; assay: Stimulation of the production of soluble GAG in mice-embryo fibroblast cultures, uptake of ^35 S; type: cell-based, mice (strain C57 BL/6 stCrl)
Experimental: (§2) For this purpose, primary cultures of mice-embryo fibroblasts (strain C57 BL/6 stCrl) were prepared by mechanical and enzymatic dissociation (in Trypsin Versene mixture-Microbiological Associates) of the embryos taken from the mother on the 18th day of pregnancy. The culture medium is the Eagle medium modified by Dulbecco and supplemented with 15% of calf foetus serum. The incubation atmosphere consists of 5% of carbon dioxide in air at 37° C. 24 hours after innoculation, the medium is replaced by a new medium containing the drug under examination and the radioactive precursor (Na2^35 SO4) for the measurement of the synthesis both of soluble and tissue-bound GAG; the culture is left to incubate for a further 24 hours and then the culture medium (containing the soluble GAG) and fibroblasts (containing the tissue-bound GAG) are separated.
(§3) The soluble GAG are isolated from the culture medium by precipitation with a solution of 5% trichloroacetic acid in ice-water while the fibroblast residues, containing the tissue-bound GAG, after repeated washings with physiological solutions, are dissolved in [sequence] or VERSENE.
(§4) The quantity of ^35 S incorporated both in the soluble GAG and in the tissue-bound GAG are evaluated by the usual scintillation methods and expressed in cpm (counts per minute).
(§5) The tests were carried out five times for each sample in order to allow the results to be evaluated statistically.

[8] = tested on: mice-embryo fibroblast; assay: Stimulation of the production of tissue-bound GAG in mice-embryo fibroblast cultures, uptake of ^35 S; type: cell-based, mice (strain C57 BL/6 stCrl)
Experimental: as §2, §3, §4, §5

[9] = 375 mg/kg/os daily, 4 days (= 300 mg/kg glucosamine sulphate)
[10] = 750 mg/kg/os daily, 4 days (= 600 mg/kg glucosamine sulphate)
[11] = im, intramuscular, max. dose 3750 mg/kg
[12] = iv, endovenous, max. dose 1875 mg/kg

SMILES: N[C@H]1C(O)O[C@H](CO)[C@@H](O)[C@@H]1O (stereo partly shown) [Glucosamine-SP, mixed salt of glucosamine sulphate and sodium chloride]
- degraded at 8760 h ([1]; 85% rh): 3 to 4%
- remaining at 36 h ([1]; Titre of glucosamine): 100%
- remaining at 1152 h ([1]; Titre of glucosamine): 101%
- % Inhibition of granuloma [2, 9]: 38.7%
- Average dry weight of the granuloma (average ± s.e.) [2, 9]: 94.6 ± 10.7
- % Inhibition of granuloma [2, 10]: 58.0%
- Average dry weight of the granuloma (average ± s.e.) [2, 10]: 64.8 ± 7.0
- Solubility (in words) ([3]; benzene, chloroform, carbon tetrachloride, methylene chloride, ligroin, ethyl ether): insoluble
- solubility thermodynamic ([3]; organic solvent or mixture, acetone, acetonitrile, tetrahydrofuran, dioxan (each)): < 100 µg/mL
- solubility thermodynamic ([3]; organic solvent or mixture, ethanol): ~300 µg/mL
- solubility thermodynamic ([3]; organic solvent or mixture, methanol): ~10000 µg/mL
- solubility thermodynamic ([3]; water): ~400000 µg/mL
- LD50 at 240 h ([4]; im, intramuscular): > 3750 mg/kg
- mortality at 240 h [4, 11]: 0%
- LD50 at 240 h ([4]; iv, endovenous): > 1880 mg/kg
- mortality at 240 h [4, 12]: 0%
- LD50 at 240 h ([4]; oral): > 6250 mg/kg
- mortality at 240 h ([4]; oral, max. dose 6250 mg/kg): 0%
- Appearance (15° C., 30% R.H., 0 days): 1
- Titre of glucosamine (15° C., 30% R.H., 0 days): 101.2%
- Appearance (15° C., 30% R.H., 7 days): 1
- Appearance (15° C., 30% R.H., 15 days): 1
- Appearance (15° C., 30% R.H., 30 days): 1
- Appearance (15° C., 30% R.H., 60 days): 1
- Appearance (15° C., 30% R.H., 120 days): 1
- Appearance (15° C., 30% R.H., 360 days): 1
- Appearance (15° C., 45% R.H., 0 days): 1
- Titre of glucosamine (15° C., 45% R.H., 0 days): 100.7%
- Appearance (15° C., 45% R.H., 7 days): 1
- Appearance (15° C., 45% R.H., 15 days): 1
- Appearance (15° C., 45% R.H., 30 days): 1
- Appearance (15° C., 45% R.H., 60 days): 1
- Appearance (15° C., 45% R.H., 120 days): 1
- Appearance (15° C., 45% R.H., 360 days): 1
- Appearance (15° C., 60% R.H., 0 days): 1
- Titre of glucosamine (15° C., 60% R.H., 0 days): 101.2%
- Appearance (15° C., 60% R.H., 3 days): 1
- Appearance (15° C., 60% R.H., 6 days): 1
- Appearance (15° C., 60% R.H., 12 days): 1
- Appearance (15° C., 60% R.H., 24 days): 1
- Appearance (15° C., 60% R.H., 36 days): 1
- Appearance (15° C., 60% R.H., 48 days): 1
- Appearance (25° C., 30% R.H., 0 days): 1
- Appearance (25° C., 30% R.H., 7 days): 1
- Appearance (25° C., 30% R.H., 15 days): 1
- Appearance (25° C., 30% R.H., 30 days): 1
- Appearance (25° C., 30% R.H., 60 days): 1
- Appearance (25° C., 30% R.H., 120 days): 1
- Appearance (25° C., 30% R.H., 360 days): 1
- Appearance (25° C., 45% R.H., 0 days): 1
- Titre of glucosamine (25° C., 45% R.H., 0 days): 98.9%
- Appearance (25° C., 45% R.H., 3 days): 1
- Appearance (25° C., 45% R.H., 6 days): 1
- Appearance (25° C., 45% R.H., 12 days): 1
- Appearance (25° C., 45% R.H., 24 days): 1
- Appearance (25° C., 45% R.H., 36 days): 1
- Appearance (25° C., 45% R.H., 48 days): 1
- Appearance (25° C., 60% R.H., 0 hours): 1
- Titre of glucosamine (25° C., 60% R.H., 0 hours): 100.7%
- Appearance (25° C., 60% R.H., 2 hours): 1
- Appearance (25° C., 60% R.H., 4 hours): 1
- Appearance (25° C., 60% R.H., 8 hours): 1
- Appearance (25° C., 60% R.H., 16 hours): 1
- Appearance (25° C., 60% R.H., 24 hours): 1
- Appearance (25° C., 60% R.H., 36 hours): 1
- Preservation after one year (25° C., 60% relative humidity, one year): perfectly preserved
- Colour change (40° C., 85% relative humidity, about 12 months): slight darkening of the colour
- Change in the subsequent 12 months (40° C., 85% relative humidity, months 12 to 24): remains constant
- Appearance scale value assigned in all the tests (all temperature/humidity conditions of Tables 1 to 6): 1
- Sensitivity to ambient relative humidity (even at high temperatures): practically negligible
- Titre of glucosamine (solid storage, 8 h): 101.2%
- Titre of glucosamine (solid storage, 24 h): 99.2%
- Titre of glucosamine (solid storage, 1152 h): 98.4%
- Titre of glucosamine (solid storage, 1440 h): 98.6%
- pH of an aqueous saturated solution ([5]; 20° C.): 3.0±0.2
- natural pH at the concentrations used ([5]; injectable phial concentrations): about 3
- LD50 at 240 h ([6]; im, intramuscular): > 3750 mg/kg
- mortality at 240 h [6, 11]: 0%
- LD50 at 240 h ([6]; iv, endovenous): > 1880 mg/kg
- mortality at 240 h [6, 12]: 0%
- LD50 at 240 h ([6]; oral): > 6250 mg/kg
- mortality at 240 h ([6]; oral, max. dose 6250 mg/kg): 0%
- Soluble GAG synthesis, average ± s.e. ([7]; 12.5 γ/ml): 6750 ± 718 cpm
- Soluble GAG synthesis, average ± s.e. ([7]; 62.5 γ/ml): 12730 ± 1201 cpm
- Soluble GAG synthesis, average ± s.e. ([7]; 125 γ/ml): 12440 ± 1473 cpm
- activation at 12.5 µg/mL ([7]; Mus musculus, Fibroblast, 24 h, 12.5 γ/ml, read-out: Δ % over non-treated controls, soluble GAG): 15.8%
- activation at 62.5 µg/mL ([7]; Mus musculus, Fibroblast, 24 h, 62.5 γ/ml, read-out: Δ % over non-treated controls, soluble GAG): 118%
- activation at 125 µg/mL ([7]; Mus musculus, Fibroblast, 24 h, 125 γ/ml, read-out: Δ % over non-treated controls, soluble GAG): 113%
- Tissue-bound GAG synthesis ([8]; 12.5 γ/ml): 5490 ± 604 cpm
- Tissue-bound GAG synthesis ([8]; 62.5 γ/ml): 7780 ± 612 cpm
- Tissue-bound GAG synthesis ([8]; 125 γ/ml): 8320 ± 1295 cpm
- activation at 12.5 µg/mL ([8]; Mus musculus, Fibroblast, 24 h, 12.5 γ/ml, read-out: Δ % over non-treated controls, tissue-bound GAG): 17.3%
- activation at 62.5 µg/mL ([8]; Mus musculus, Fibroblast, 24 h, 62.5 γ/ml, read-out: Δ % over non-treated controls, tissue-bound GAG): 66.2%
- activation at 125 µg/mL ([8]; Mus musculus, Fibroblast, 24 h, 125 γ/ml, read-out: Δ % over non-treated controls, tissue-bound GAG): 77.8%

Reference: patent US4642340A, “Stable compounds of glucosamine sulphate” (Rotta Research Laboratorium S.p.A., priority 1981, dated 1987)
